From PMC12624743 (ACS Infectious Diseases, 2025)
Changes are numbered by the printed parent chain.

How the values were obtained:
[1] = molecular target: T1, N. gonorrhoeae topoisomerase IV ParC^D86N (Neisseria gonorrhoeae, UniProt P48374, D86N); assay: DNA cleavage assay, ParC^D86N topoisomerase IV; format: biochemical
T1 construct: His; made in house
T1 sequence (P48374 1-768 D86N): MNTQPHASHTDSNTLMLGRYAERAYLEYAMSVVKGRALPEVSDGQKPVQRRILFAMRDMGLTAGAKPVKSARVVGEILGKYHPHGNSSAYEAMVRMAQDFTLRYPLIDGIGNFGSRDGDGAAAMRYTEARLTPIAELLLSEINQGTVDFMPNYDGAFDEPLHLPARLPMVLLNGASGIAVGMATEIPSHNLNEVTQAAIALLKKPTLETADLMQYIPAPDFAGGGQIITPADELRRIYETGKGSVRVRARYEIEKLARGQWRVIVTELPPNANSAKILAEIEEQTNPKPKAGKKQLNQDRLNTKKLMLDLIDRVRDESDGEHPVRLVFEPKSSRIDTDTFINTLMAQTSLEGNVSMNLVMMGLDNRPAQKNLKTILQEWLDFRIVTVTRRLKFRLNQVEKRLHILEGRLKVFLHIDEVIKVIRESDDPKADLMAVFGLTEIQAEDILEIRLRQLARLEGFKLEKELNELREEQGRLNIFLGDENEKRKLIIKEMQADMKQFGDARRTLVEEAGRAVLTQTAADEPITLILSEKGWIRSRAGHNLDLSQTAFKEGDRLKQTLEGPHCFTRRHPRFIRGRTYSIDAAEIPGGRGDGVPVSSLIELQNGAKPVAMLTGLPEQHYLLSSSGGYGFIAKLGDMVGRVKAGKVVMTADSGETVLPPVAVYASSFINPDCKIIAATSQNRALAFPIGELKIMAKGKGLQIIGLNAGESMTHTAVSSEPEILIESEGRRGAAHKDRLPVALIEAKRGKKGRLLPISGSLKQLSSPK
Protocol: (§1) Some experiments replaced MgCl2 with an equivalent concentration of CaCl2 (10 mM), or 1.5 mM ATP was added to assay mixtures.
(§2) Reactions were incubated at 37 °C for 30 min with WT and mutant (GyrA^D90N, GyrA^A92T, GyrA^S91F, GyrA^D95G, or GyrA^S91F/D95G) N. gonorrhoeae gyrase, 10 min with WT N. gonorrhoeae topoisomerase IV, and 20 min with mutant (ParC^D86N, ParC^S88P, ParC^S87N, or ParC^E91G) N. gonorrhoeae topoisomerase IV. Enzyme-DNA cleavage complexes were trapped by adding 2 μL of 5% SDS followed by 2 μL of 250 mM EDTA (pH 8.0). Proteinase K was added (2 μL of a 0.8 mg/mL solution), and reaction mixtures were incubated at 45 °C for 30 min to digest the enzyme. Samples were mixed with 2 μL of loading buffer and heated at 45 °C for 2 min prior to electrophoresis in 1% agarose gels in 40 mM Tris-acetate (pH 8.3), and 2 mM EDTA containing 0.5 μg/mL ethidium bromide. DNA bands were visualized by midrange ultraviolet light and quantified using an Alpha Innotech digital imaging system (Protein Simple). Single-stranded DNA cleavage was monitored by the conversion of negatively supercoiled to nicked plasmid molecules.

[2] = test system: N. gonorrhoeae topoisomerase IV ParC^S87N; assay: biochemical; conditions: ParC S87N vs WT
Protocol: as §1, §2

[3] = test system: N. gonorrhoeae topoisomerase IV ParC^S88P; assay: biochemical; conditions: ParC S88P vs WT topoisomerase IV
Protocol: as §1, §2

[4] = molecular target: N. gonorrhoeae topoisomerase IV ParC^E91G (Neisseria gonorrhoeae, UniProt P48374, E91G); assay: biochemical
Protocol: as §1, §2

[5] = molecular target: T2, WT N. gonorrhoeae topoisomerase IV (Neisseria gonorrhoeae, UniProt P48374); assay: biochemical
T2 sequence (P48374 1-768): T1 sequence (P48374 1-768 D86N) with N86D
Protocol: as §1, §2

Sequence of N. gonorrhoeae topoisomerase IV ParC^E91G (P48374 whole entry E91G): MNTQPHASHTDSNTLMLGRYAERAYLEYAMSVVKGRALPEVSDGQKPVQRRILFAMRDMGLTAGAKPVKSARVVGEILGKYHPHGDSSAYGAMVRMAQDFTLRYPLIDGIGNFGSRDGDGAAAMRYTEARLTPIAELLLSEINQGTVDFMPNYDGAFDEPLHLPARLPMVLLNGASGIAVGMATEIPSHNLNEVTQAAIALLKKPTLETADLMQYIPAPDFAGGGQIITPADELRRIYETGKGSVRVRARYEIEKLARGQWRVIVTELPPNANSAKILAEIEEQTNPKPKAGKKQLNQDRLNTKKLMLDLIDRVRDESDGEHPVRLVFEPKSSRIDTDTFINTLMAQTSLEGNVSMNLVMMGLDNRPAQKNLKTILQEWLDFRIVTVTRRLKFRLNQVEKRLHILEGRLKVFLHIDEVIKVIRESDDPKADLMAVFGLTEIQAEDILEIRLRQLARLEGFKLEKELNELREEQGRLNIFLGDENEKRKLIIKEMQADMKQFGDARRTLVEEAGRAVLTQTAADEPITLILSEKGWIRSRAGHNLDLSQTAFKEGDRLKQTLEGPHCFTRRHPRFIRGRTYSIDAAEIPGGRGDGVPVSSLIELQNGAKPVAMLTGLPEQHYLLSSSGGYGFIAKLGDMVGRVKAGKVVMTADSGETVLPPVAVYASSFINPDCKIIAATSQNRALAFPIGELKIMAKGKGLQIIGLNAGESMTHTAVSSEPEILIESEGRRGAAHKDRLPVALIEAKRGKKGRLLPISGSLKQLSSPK

## O=c1ccc2ncc(=O)n3c2n1C[C@H]3CN1CCC(NCc2cc3c(cn2)OCCC3)CC1 [gepotidacin]
[1]
  Adj-Max Cleavage, single-stranded DNA breaks: 9.3%
[1]; ParC D86N topoisomerase IV, read-out: CC50, single-stranded DNA cleavage
  EC50: > 50000 nM
[2]
  fold decrease of Adj-Max Cleavage vs WT: ~4.2 fold
[3]
  more single-stranded DNA cleavage with mutant enzyme compared to WT: ~40%
[4]
  EC50: 200 nM
[5]
  EC50: 600 ± 200 nM
[5]; WT topoisomerase IV, 1.5 mM ATP
  effect of ATP on potency and maximal DNA cleavage: little effect
[5]; WT topoisomerase IV, Mg2+ replaced with Ca2+
  effect on double-stranded DNA breaks: clear suppression
[5]; WT topoisomerase IV, adjusted for baseline cleavage
  Adj-Max Cleavage, single-stranded DNA breaks: ~42.8%
[5]; WT topoisomerase IV, up to 200 μM gepotidacin, up to 180 min
  additional enhancement of double-stranded DNA breaks above baseline: not observed
